Format in all cases: functional, organism-based
Assay [1] concerns Human betaherpesvirus 5. Kind of assay: Tested for antiviral activity against HCMV in AD169 cell line. The conditions noted are these: Human betaherpesvirus 5, AD169.
For assay [2], the system named is Human betaherpesvirus 5. Kind of assay: Tested for antiviral activity against HCMV in Davis cell line. Particulars: Human betaherpesvirus 5, Davis.
For the next assay, the system named is Human alphaherpesvirus 2. Kind of assay: Tested for antiviral activity against HSV-2 in CCL 81 cells.
For the next assay, the system named is Human alphaherpesvirus 1. As to the kind of experiment: Tested for antiviral activity against HSV-1 in CCL 81 cells.
For assay [3], the system named is Human betaherpesvirus 5. Kind of assay: Tested for antiviral activity against HCMV in […] cells.
Assay [4] concerns Human immunodeficiency virus 1. Kind of assay: Tested for antiviral activity against HIV-1 in MT-4 cells. Particulars: MT4.

This note sets out measurements from ChEMBL document CHEMBL1134207, “Synthesis and antiviral activity of novel D- and L-2'-azido-2',3'-dideoxyribofuranosyl-4'-thiopyrimidines and purines” (Bioorg Med Chem Lett, 2001).

Converted amounts (≈) assume the structure as drawn. The source made the active and inactive calls. The calls are words filed in the database; no cut-off is given here.

What is called EC50 is the concentration at which the effect is half-maximal. Read a low EC50 as higher potency in that assay.

For `CNc1ncnc2c1ncn2[C@H]1S[C@H](CO)C[C@H]1N=[N+]=[N-]`, the half-maximal effective concentration (EC50) worked out at 19.1 µg/mL (≈ 62.5 µM) with Human betaherpesvirus 5 [1] and 25.8 µg/mL (≈ 84.2 µM) in the assay with Human betaherpesvirus 5 [2].

Take `[N-]=[N+]=N[C@H]1C[C@H](CO)S[C@@H]1n1ccc(N)nc1=O`: the outcome (with Human alphaherpesvirus 2; with Human alphaherpesvirus 1; in assay [4]) was inactive. Besides, the Activity entry in the assay with Human betaherpesvirus 5 [3] was “Significant activity”.

Consider `Cc1cn([C@@H]2S[C@@H](CO)C[C@@H]2N=[N+]=[N-])c(=O)[nH]c1=O`, for which the result (with Human alphaherpesvirus 2; in the assay with Human alphaherpesvirus 1; in assay [4]) was inactive. Moreover, the Activity entry in the assay with Human betaherpesvirus 5 [3] is “Significant activity”.

With `[N-]=[N+]=N[C@H]1C[C@H](CO)S[C@H]1n1ccc(=O)[nH]c1=O`, the result (with Human alphaherpesvirus 2; with Human alphaherpesvirus 1; in assay [4]) was inactive. The Activity result with Human betaherpesvirus 5 [3] is “Significant activity”.

In the case of `Cc1cn([C@H]2S[C@@H](CO)C[C@@H]2N=[N+]=[N-])c(=O)[nH]c1=O`, the result (in the assay on Human alphaherpesvirus 2; in the assay on Human alphaherpesvirus 1; in assay [4]) was inactive. In addition, the Activity entry in the assay with Human betaherpesvirus 5 [3] is “Significant activity”.

As to `[N-]=[N+]=N[C@H]1C[C@H](CO)S[C@@H]1n1ccc(=O)[nH]c1=O`, the result (in the assay on Human alphaherpesvirus 2; in the assay with Human alphaherpesvirus 1; in assay [4]) was inactive. Further, the Activity entry in the assay on Human betaherpesvirus 5 [3] is “Significant activity”.

Regarding `[N-]=[N+]=N[C@H]1C[C@H](CO)S[C@H]1n1ccc(N)nc1=O`, the outcome (in the assay with Human alphaherpesvirus 2; with Human alphaherpesvirus 1; in assay [4]) was inactive. In addition, the Activity entry with Human betaherpesvirus 5 [3] is “Significant activity”.

Turning to `[N-]=[N+]=N[C@H]1C[C@H](CO)S[C@H]1n1cnc2c(O)ncnc21`, the outcome (in the assay on Human alphaherpesvirus 2; in the assay with Human alphaherpesvirus 1; in assay [4]) was inactive. In addition, the Activity entry with Human betaherpesvirus 5 [3] is “Significant activity”.

Turning to `[N-]=[N+]=N[C@H]1C[C@H](CO)S[C@@H]1n1cnc2c(N)ncnc21`, the result (in the assay with Human alphaherpesvirus 2; in the assay with Human alphaherpesvirus 1; in assay [4]) was inactive. The Activity result with Human betaherpesvirus 5 [3] is “Significant activity”.

Turning to `[N-]=[N+]=N[C@@H]1C[C@@H](CO)S[C@H]1n1cnc2c(Cl)ncnc21`, the outcome (in the assay on Human alphaherpesvirus 2; in the assay with Human alphaherpesvirus 1; in assay [4]) was inactive. In addition, in the assay on Human betaherpesvirus 5 [3], the Activity result was “Significant activity”.

Consider `[N-]=[N+]=N[C@H]1C[C@H](CO)S[C@H]1n1cnc2c(N)ncnc21`, for which the outcome (in the assay on Human alphaherpesvirus 2; in the assay on Human alphaherpesvirus 1; in assay [4]) was inactive. For the same molecule, in the assay on Human betaherpesvirus 5 [3], the Activity result is “Significant activity”.

Consider `CNc1ncnc2c1ncn2[C@H]1S[C@@H](CO)C[C@@H]1N=[N+]=[N-]`, for which the result (in the assay on Human alphaherpesvirus 2; with Human alphaherpesvirus 1; in assay [4]) was inactive. Further, in the assay with Human betaherpesvirus 5 [3], the Activity entry is “Significant activity”.

Regarding `[N-]=[N+]=N[C@@H]1C[C@@H](CO)S[C@@H]1n1cnc2c(N)ncnc21`, the result (with Human alphaherpesvirus 2; in the assay on Human alphaherpesvirus 1; in assay [4]) was inactive. Besides, the Activity result in the assay with Human betaherpesvirus 5 [3] was “Significant activity”.

Regarding `[N-]=[N+]=N[C@H]1C[C@H](COC(=O)c2ccccc2)S[C@@H]1n1ccc(=O)n(C(=O)c2ccccc2)c1=O`, the result (in the assay on Human alphaherpesvirus 2; in the assay on Human alphaherpesvirus 1; in assay [4]) was inactive. For the same molecule, the Activity entry with Human betaherpesvirus 5 [3] is “Significant activity”.

As to `CC(C)(C)[Si](OC[C@H]1C[C@H](N=[N+]=[N-])[C@H](n2ccc(NC(=O)c3ccccc3)nc2=O)S1)(c1ccccc1)c1ccccc1`, the outcome (with Human alphaherpesvirus 2; with Human alphaherpesvirus 1; in assay [4]) was inactive. The Activity result with Human betaherpesvirus 5 [3] is “Significant activity”.

For the molecule `[N-]=[N+]=N[C@@H]1C[C@@H](CO)S[C@H]1n1cnc2c(N)ncnc21`, the result (in the assay on Human alphaherpesvirus 2; in the assay with Human alphaherpesvirus 1; in assay [4]) was inactive. For the same molecule, the Activity result in the assay on Human betaherpesvirus 5 [3] was “Significant activity”.

In the case of `[N-]=[N+]=N[C@H]1C[C@H](CO)S[C@@H]1n1cnc2c(Cl)ncnc21`, the outcome (in the assay with Human alphaherpesvirus 2; with Human alphaherpesvirus 1; in assay [4]) was inactive. Besides, the Activity entry in the assay with Human betaherpesvirus 5 [3] is “Significant activity”.

For the molecule `CNc1ncnc2c1ncn2[C@@H]1S[C@H](CO)C[C@H]1N=[N+]=[N-]`, the values for the EC50 with Human betaherpesvirus 5 [1] and in the assay with Human betaherpesvirus 5 [2] were 26.1 µg/mL (≈ 85.2 µM) and 90.2 µg/mL (≈ 294 µM), respectively.

With `CC(C)(C)[Si](OC[C@H]1C[C@H](N=[N+]=[N-])[C@@H](n2ccc(NC(=O)c3ccccc3)nc2=O)S1)(c1ccccc1)c1ccccc1`, the outcome (in the assay on Human alphaherpesvirus 2; with Human alphaherpesvirus 1; in assay [4]) was inactive. For the same molecule, the Activity entry in the assay on Human betaherpesvirus 5 [3] is “Significant activity”.

Consider `[N-]=[N+]=N[C@@H]1C[C@@H](CO)S[C@@H]1n1cnc2c(Cl)ncnc21`, for which the result (with Human alphaherpesvirus 2; with Human alphaherpesvirus 1; in assay [4]) was inactive. Besides, in the assay with Human betaherpesvirus 5 [3], the Activity result was “Significant activity”.

For the molecule `[N-]=[N+]=N[C@H]1C[C@H](CO)S[C@H]1n1cnc2c(Cl)ncnc21`, the result (in the assay on Human alphaherpesvirus 2; with Human alphaherpesvirus 1; in assay [4]) was inactive. Further, in the assay on Human betaherpesvirus 5 [3], the Activity result was “Significant activity”.

In the case of `[N-]=[N+]=N[C@H]1C[C@H](COC(=O)c2ccccc2)S[C@H]1n1ccc(=O)n(C(=O)c2ccccc2)c1=O`, the outcome (in the assay with Human alphaherpesvirus 2; in the assay with Human alphaherpesvirus 1; in assay [4]) was inactive. For the same molecule, the Activity result in the assay on Human betaherpesvirus 5 [3] is “Significant activity”.

On to `CNc1ncnc2c1ncn2[C@@H]1S[C@@H](CO)C[C@@H]1N=[N+]=[N-]`, for which the outcome (in the assay on Human alphaherpesvirus 2; in the assay on Human alphaherpesvirus 1; in assay [4]) was inactive. Further, in the assay with Human betaherpesvirus 5 [3], the Activity result is “Significant activity”.

`[N-]=[N+]=N[C@H]1C[C@H](CO)S[C@@H]1n1cnc2c(O)ncnc21`: the result (with Human alphaherpesvirus 2; in the assay on Human alphaherpesvirus 1; in assay [4]) was inactive. The Activity result in the assay with Human betaherpesvirus 5 [3] was “Significant activity”.

In the case of `Nc1nc2c(ncn2COC(CO)CO)c(=O)[nH]1` [GANCICLOVIR], the EC50 is 0.98 µg/mL (≈ 3.84 µM) in the assay on Human betaherpesvirus 5 [1] and 4.07 µg/mL (≈ 15.9 µM) in the assay with Human betaherpesvirus 5 [2].

For `CC(=O)OC1S[C@@H](CO[Si](c2ccccc2)(c2ccccc2)C(C)(C)C)C[C@@H]1N=[N+]=[N-]` (stereo partly drawn), the outcome (in the assay on Human alphaherpesvirus 2; with Human alphaherpesvirus 1; in the assay with Human betaherpesvirus 5 [3]; in assay [4]) was inactive.
